The values that follow come from US11420935B2, “Bicyclic compounds” (Vivace Therapeutics, Inc., priority 2019, dated 2022).

In the experiment the test system is 8×TBD luciferase reporter (YAP) in HEK293T cells. The experiment can be described thus: YAP Reporter Assay (8×TBD firefly luciferase reporter). The class given is cell-based. The following applies: Homo sapiens, HEK-293T; HEK293T cells stably transfected with 8×TBD luciferase reporter and pRLTK; 24-hr incubation; firefly luciferase activity; read-out: Firefly Luciferase IC50. Here is the method: HEK293T cells stably transfected with 8×TBD luciferase reporter and pRLTK in 384-well plates were treated with the test compounds, starting from 3 μM (final concentration in assay plate), 1:3 dilution, and 10 points in quadruplicates. Post 24-hr incubation with compounds at 37° C. and 5% CO2, cells were lysed and 8×TBD-driven firefly luciferase and control TK-driven renilla luciferase activities were measured using Promega Dual-Luciferase Reporter Assay System.
Reagents: The reagents used for this study are: DMEM: Invitrogen #11960077, Dual-Glo Luciferase Assay System: Promega-E2980, Puromycin Dihydrochloride: Invitrogen-A1113803, 384-well plate: PerkinElmer-6007480, L-GLUTAMINE: Invitrogen-25030164, Hygromycin B: Invitrogen-10687010, and Penicillin-Streptomycin: Merk-TMS-AB2-C
Media: The media used for this assay were: Culture Medium: DMEM+1 ug/mL puromycin+200 ug/mL hygromycin (with 10% FBS+1 mM L-glutamine); and Assay Medium: DMEM (with 10% FBS+1 mM L-glutamine+1×P/S).
Cell Plating: The appropriate media was warmed at 37° C. by water bath: Culture Medium, Assay Medium, 1*D-PBS, 0.05% trypsin-EDTA. The cells were trypsinized after removing all media, then washed with 1*sterile D-PBS and then with 2 ml 0.05% trypsin-EDTA. The cells were then incubated at RT for one minute. Then 10 ml/75 cm2 flask Assay Medium was added to each flask. Using a 10 ml pipette, the cells were then gently resuspended in the media, until the clumps completely disappeared. The cells were then transferred into 50 ml centrifuge tubes and were centrifuged at 800 rpm for 5 mins. The medium was removed and the cells were resuspended with Assay Medium. An aliquot of cells was used to count the cell density (cells/ml). The cell suspension was then diluted with Assay Medium to a concentration of 6×10^4 cells/ml. 50 ul cells suspension was then plated to 384-well plate (PerkinElmer-6007480), 3×10^3 cells/well and the cells were incubated in an incubator at 37° C., 5% CO2.
Compound Treatment: In the afternoon (incubation of the plate with 3-4 hrs), the test compounds were added by Echo, starting from 3 uM (final concentration in the assay plate), 1:3 dilution, 10 points, quadruplicates. The plate was placed at 37° C., 5% CO2 incubator for 24 hrs.
Detection: The Dual-Glo Luciferase Reagent was prepared by transferring the contents of one bottle of Dual-Glo Luciferase Buffer to one bottle of Dual-Glo Luciferase Substrate to create the Dual-Glo Luciferase Reagent. Mixing was performed by inversion until the substrate was thoroughly dissolved. After mixing, the reagent was aliquoted into 15 ml tubes. In the afternoon (24 hrs post compound treatment), the DMEM+medium in the 384 well plates were aspirated by Microplate Washer.
Measuring firefly luciferase activity: 20 ul Dual-Glo Luciferase Reagent was added to the 384-well plates. The plates were protected from light to prevent interference with the assay. The plates were shaken for 1 min followed centrifuging plates at 1000 rpm for 30 seconds. After waiting at least 10 minutes, the firefly luminescence was measured by Envision.
Measuring renilla luciferase activity: 20 ul Stop-Glo Reagent was added to the 384-well plates. The plates were shaken for 1 min and then centrifuged at 1000 rpm for 30 seconds. After waiting at least 10 minutes, the renilla luminescence was measured by Envision.
Compound IC50 and maximum inhibition on the firefly luciferase and renilla luciferase activities were reported separately.
Background: In a reporter assay the amount or activity of a reporter protein is the signal.
Regarding `C[C@H](CO)NC(=O)c1cc2cccc(Oc3ccc(C(F)(F)F)cc3)c2s1` [Compound 33, (R)—N-(1-hydroxypropan-2-yl)-7-(4-(trifluoromethyl)phenoxy)benzo[b]thiophene-2-carboxamide], the half-maximal inhibitory concentration (IC50) (commonly the concentration that gives 50% inhibition) was < 100 nM.

With `CNCCCNC(=O)c1ccc2c(Oc3ccc(C(F)(F)F)cc3)cccc2c1` [Compound 34, N-(3-(methylamino)propyl)-5-(4-(trifluoromethyl)phenoxy)-2-naphthamide], the IC50 is < 100 nM.

As to `CN(C#N)CCCNC(=O)c1ccc2c(Oc3ccc(C(F)(F)F)cc3)cccc2c1` [Compound 35, N-(3-(N-methylcyanamido)propyl)-5-(4-(trifluoromethyl)phenoxy)-2-naphthamide], the concentration for half-maximal inhibition (IC50) is < 100 nM. With `O=C(NC1(c2ccccc2)CC1)c1ccc2c(Oc3ccc(C(F)(F)F)cc3)cccc2c1` [Compound 36, N-(1-phenylcyclopropyl)-5-[4-(trifluoromethyl)phenoxy]naphthalene-2-carboxamide], the IC50 was < 100 nM. As for `O=C(NC1(c2ccccc2)COC1)c1ccc2c(Oc3ccc(C(F)(F)F)cc3)cccc2c1` [Compound 37, N-(3-phenyloxetan-3-yl)-5-(4-(trifluoromethyl)phenoxy)-2-naphthamide], the IC50 is < 100 nM.

With `C[C@@H](NC(=O)c1ccc2c(Oc3ccc(C(F)(F)F)cc3)cccc2c1)C1CC1` [Compound 38, (R)—N-(1-cyclopropylethyl)-5-(4-(trifluoromethyl)phenoxy)-2-naphthamide], the IC50 was < 100 nM. For `C[C@H](NC(=O)c1ccc2c(Oc3ccc(C(F)(F)F)cc3)cccc2c1)C1CC1` [Compound 39, (S)—N-(1-cyclopropylethyl)-5-(4-(trifluoromethyl)phenoxy)-2-naphthamide], the IC50 was < 100 nM. Next, `C[C@@H](NC(=O)c1ccc2c(Oc3ccc(C(F)(F)F)cc3)cccc2c1)C1COC1` [Compound 40, (R)—N-(1-(oxetan-3-yl)ethyl)-5-(4-(trifluoromethyl)phenoxy)-2-naphthamide]: < 100 nM; `C[C@H](NC(=O)c1ccc2c(Oc3ccc(C(F)(F)F)cc3)cccc2c1)C1COC1` [Compound 41, (S)—N-(1-(oxetan-3-yl)ethyl)-5-(4-(trifluoromethyl)phenoxy)-2-naphthamide]: < 100 nM.

Turning to `COc1cc(Oc2ccc(C(F)(F)F)cc2)c2ncc(C(=O)N[C@H](C)c3ccccn3)cc2c1` [Compound 42, (R)-6-methoxy-N-(1-(pyridin-2-yl)ethyl)-8-(4-(trifluoromethyl)phenoxy)quinoline-3-carboxamide], the IC50 was 100 to 1000 nM. The value for `COc1cc(Oc2ccc(C(F)(F)F)cc2)c2ncc(C(=O)N[C@@H](C)c3ccccn3)cc2c1` [Compound 43, (S)-6-methoxy-N-(1-(pyridin-2-yl)ethyl)-8-(4-(trifluoromethyl)phenoxy)quinoline-3-carboxamide] was < 100 nM; that for `COC[C@@H](C)NC(=O)c1cnc2c(Oc3ccc(C(F)(F)F)cc3)cc(OC)cc2c1` [Compound 44, (R)-6-methoxy-N-(1-methoxypropan-2-yl)-8-(4-(trifluoromethyl)phenoxy)quinoline-3-carboxamide] was < 100 nM; that for `COC[C@H](C)NC(=O)c1cnc2c(Oc3ccc(C(F)(F)F)cc3)cc(OC)cc2c1` [Compound 45, (S)-6-methoxy-N-(1-methoxypropan-2-yl)-8-(4-(trifluoromethyl)phenoxy)quinoline-3-carboxamide] was < 100 nM.

For the compound `C[C@@H](NC(=O)c1ccc2c(Oc3ccc(C(F)(F)F)cc3)cccc2c1)c1cnccn1` [Compound 46, (R)—N-(1-(pyrazin-2-yl)ethyl)-5-(4-(trifluoromethyl)phenoxy)-2-naphthamide], the IC50 is < 100 nM. Regarding `C[C@H](NC(=O)c1ccc2c(Oc3ccc(C(F)(F)F)cc3)cccc2c1)c1cnccn1` [Compound 47, (S)—N-(1-(pyrazin-2-yl)ethyl)-5-(4-(trifluoromethyl)phenoxy)-2-naphthamide], the IC50 was 100 to 1000 nM. Next, `C[C@@H](NC(=O)c1ccc2c(Oc3ccc(C(F)(F)F)cc3)cccc2c1)c1c[nH]cn1` [Compound 48, (R)—N-(1-(1H-imidazol-4-yl)ethyl)-5-(4-(trifluoromethyl)phenoxy)-2-naphthamide]: < 100 nM; `C[C@H](NC(=O)c1ccc2c(Oc3ccc(C(F)(F)F)cc3)cccc2c1)c1c[nH]cn1` [Compound 49, (S)—N-(1-(1H-imidazol-4-yl)ethyl)-5-(4-(trifluoromethyl)phenoxy)-2-naphthamide]: < 100 nM; `C[C@H](NC(=O)c1ccc2c(Oc3ccc(C(F)(F)F)cc3)cccc2c1)C(N)=O` [Compound 50, (S)—N-(1-amino-1-oxopropan-2-yl)-5-(4-(trifluoromethyl)phenoxy)-2-naphthamide]: < 100 nM. Next, `C[C@@H](NC(=O)c1ccc2c(Oc3ccc(C(F)(F)F)cc3)cccc2c1)C(N)=O` [Compound 51, (R)—N-(1-amino-1-oxopropan-2-yl)-5-(4-(trifluoromethyl)phenoxy)-2-naphthamide]: < 100 nM; `C[C@H](NC(=O)c1ccc2c(Oc3ccc(C(F)(F)F)cc3)cccc2c1)c1nn[nH]n1` [Compound 52, (S)—N-(1-(2H-tetrazol-5-yl)ethyl)-5-(4-(trifluoromethyl)phenoxy)-2-naphthamide]: 1000 to 3000 nM; `O=C(NC1(c2ccccn2)CC1)c1ccc2c(Oc3ccc(C(F)(F)F)cc3)cccc2c1` [Compound 54, N-(1-(pyridin-2-yl)cyclopropyl)-5-(4-(trifluoromethyl)phenoxy)-2-naphthamide]: < 100 nM. Next, `C[C@H](NC(=O)c1ccc2c(Oc3ccc(C(F)(F)F)cc3)cccc2c1)c1nnnn1C` [Compound 55, (S)—N-(1-(1-methyl-1H-tetrazol-5-yl)ethyl)-5-(4-(trifluoromethyl)phenoxy)-2-naphthamide]: 100 to 1000 nM; `C[C@@H](NC(=O)c1ccc2c(Oc3ccc(C(F)(F)F)cc3)cccc2c1)c1nnnn1C` [Compound 56, (R)—N-(1-(1-methyl-1H-tetrazol-5-yl)ethyl)-5-(4-(trifluoromethyl)phenoxy)-2-naphthamide]: 100 to 1000 nM. Turning to `C[C@@H](NC(=O)c1ccc2c(Oc3ccc(C(F)(F)F)cc3)cccc2c1)c1nnn(C)n1` [Compound 57, (R)—N-(1-(2-methyl-2H-tetrazol-5-yl)ethyl)-5-(4-(trifluoromethyl)phenoxy)-2-naphthamide], the IC50 is 100 to 1000 nM. As for `C[C@H](NC(=O)c1ccc2c(Oc3ccc(C(F)(F)F)cc3)cccc2c1)c1nnn(C)n1` [Compound 58, (S)—N-(1-(2-methyl-2H-tetrazol-5-yl)ethyl)-5-(4-(trifluoromethyl)phenoxy)-2-naphthamide], the IC50 is < 100 nM.

Regarding `C[C@@H](NC(=O)c1ccc2c(Oc3ccc(C(F)(F)F)cc3)cccc2c1)C1CCC1` [Compound 59, (R)—N-(1-cyclobutylethyl)-5-(4-(trifluoromethyl)phenoxy)-2-naphthamide], the IC50 was < 100 nM. With `C[C@H](NC(=O)c1ccc2c(Oc3ccc(C(F)(F)F)cc3)cccc2c1)C1CCC1` [Compound 60, (S)—N-(1-cyclobutylethyl)-5-(4-(trifluoromethyl)phenoxy)-2-naphthamide], the IC50 is < 100 nM. Next, `C#C[C@@H](C)NC(=O)c1ccc2c(Oc3ccc(C(F)(F)F)cc3)cccc2c1` [Compound 61, (R)—N-(but-3-yn-2-yl)-5-(4-(trifluoromethyl)phenoxy)-2-naphthamide]: < 100 nM; `C#C[C@H](C)NC(=O)c1ccc2c(Oc3ccc(C(F)(F)F)cc3)cccc2c1` [Compound 62, (S)—N-(but-3-yn-2-yl)-5-(4-(trifluoromethyl)phenoxy)-2-naphthamide]: < 100 nM.
